Patent US5407918A, “16-membered macrolide derivatives and process for producing the same” (Meiji Seika Kaisha, Ltd., priority 1992, dated 1995)
In brackets after ≈: the same amount, converted by molar mass. Entries after “also recorded” stand apart in the source; their conditions may differ. Blank lines part the entries; values can stand above or below the molecule they belong to.

Assays:
[1] = concentration in serum after oral administration to mice, bioassay; type: in vivo, mice (Jcl:ICR); conditions: for Cmax: mouse, serum, 200 mg/kg, M. luteus bioassay, read-out: maximum concentration in the serum
Method in brief: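 Male 4-week-old Jcl:ICR mice dosed orally with compound suspended in 0.2% CMC (4 mg/ml, 1 ml; another compound at 200 mg/kg). Serum sampled 30-360 min (n=2), diluted 1:1 in CH3CN-phosphate pH 7.0; concentration measured by M. luteus ATCC9341 agar-well bioassay (32 °C, 18 h) against a calibration curve.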

[2] = recovery in urine after oral administration to mice, bioassay; type: in vivo; conditions: for dose excreted at 24 h: mouse, 200 mg/kg oral (compound (3)), urine 4 and 24 hours
Description: Subsequently, 200 mg/kg of the compound (3) was orally administered to three mice in the same manner as described above.
The three mice were put in a metabolic cage MM type (Sugiyamagen Company, Tokyo, Japan) and urine was collected 4 and 24 hours after the administration of the test compound. The collected urine was filtered through a filter having a pore size of 0.45 μm (Millipore) and was mixed with an equivalent volume of 50% CH3CN-50 mM phosphate (1:1 by volume) buffer (pH 6.5) to serve as a urine sample. The bioassay was carried out in the same manner as described above to determine the concentration of the test compound in the urine sample. The recovering in the urine was calculated according to the following equation. [formula]

[3] = Yakugaku Zasshi, 102 (8), 781 (1982); cited from earlier work
esterase = conditions: in vivo; cited from earlier work
[4] = oral, man and dog; cited from earlier work
[5] = Journal of Antibiotics, 36 (4), 442 (1983); cited from earlier work
M. luteus ATCC9341 = assay: MIC, agar plate dilution method; type: cell-based; conditions: Micrococcus luteus; M. luteus ATCC9341; 37° C., 20 hours; read-out: Antimicrobial activity (MIC)
Method in brief: (§1)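 Using blood-supplemented (5% horse) Sensitivity disk agar, we inoculated 5 μl spots of ~10^6 CFU/ml cultures and scored MIC after incubating 20 hours at 37° C. Broth seed cultures served most strains; Branhamella came from blood agar.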

E. faecalis W-73 = assay: MIC, agar plate dilution method; type: cell-based; conditions: Enterococcus faecalis, W73; E. faecalis W-73; 37° C., 20 hours; read-out: Antimicrobial activity (MIC)
Method in brief: as §1

S. Pneumoniae Type 1 = assay: MIC, agar plate dilution method; type: cell-based; conditions: Streptococcus pneumoniae; S. Pneumoniae Type 1; 37° C., 20 hours; read-out: Antimicrobial activity (MIC)
Method in brief: as §1

B. catarrhalis W-0500 = assay: MIC, agar plate dilution method; type: cell-based; conditions: Moraxella catarrhalis, W0500, 37° C., 20 hours, read-out: Antimicrobial activity (MIC)
Method in brief: as §1

B. catarrhalis W-0506 = assay: MIC, agar plate dilution method; type: cell-based; conditions: Moraxella catarrhalis, W0506, 37° C., 20 hours, read-out: Antimicrobial activity (MIC)
Method in brief: as §1

S. aureus MS15009/pMS99 = assay: MIC, agar plate dilution method; type: cell-based; conditions: Staphylococcus aureus, MS15009/PMS99, 20 h, read-out: Antimicrobial activity (MIC)
Method in brief: (§2)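 First, test organisms are precultured in Sensitivity test broth, or on blood agar for Branhamella. Next, 5 μl of suspension (about 10^6 CFU/ml) goes onto horse blood (5%) Sensitivity disk agar. Plates then sit at 37° C for 20 hours before MIC reading.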

K. pneumoniae PC1602 = assay: MIC, agar plate dilution method; type: cell-based; conditions: Klebsiella pneumoniae, 37° C., 20 hours, read-out: Antimicrobial activity (MIC)
Method in brief: as §1

M. pneumoniae FH = assay: MIC, agar plate dilution method; type: cell-based; conditions: Mycoplasmoides pneumoniae, 20 h, read-out: Antimicrobial activity (MIC)
Method in brief: as §1

S. epidermidis ATCC14990 = assay: MIC, agar plate dilution method; type: cell-based; conditions: Staphylococcus epidermidis, 37° C., 20 hours, read-out: Antimicrobial activity (MIC)
Method in brief: as §1

S. pneumoniae IP692 = assay: MIC, agar plate dilution method; type: cell-based; conditions: Streptococcus pneumoniae; S. pneumoniae IP692; 37° C., 20 hours; read-out: Antimicrobial activity (MIC)
Method in brief: as §1

S. aureus M126 = assay: MIC, agar plate dilution method; type: cell-based; conditions: Staphylococcus aureus; S. aureus M126; 37° C., 20 hours; read-out: Antimicrobial activity (MIC)
Method in brief: as §1

S. aureus 209P JC-1 = assay: MIC, agar plate dilution method; type: cell-based; conditions: Staphylococcus aureus; S. aureus 209P JC-1; 37° C., 20 hours; read-out: Antimicrobial activity (MIC)
Method in brief: as §1

H. influenzae 9334 = assay: MIC, agar plate dilution method; type: cell-based; conditions: Haemophilus influenzae; H. influenzae 9334; 37° C., 20 hours; read-out: Antimicrobial activity (MIC)
Method in brief: as §1

S. aureus M133 = assay: MIC, agar plate dilution method; type: cell-based; conditions: Staphylococcus aureus, 37° C., 20 hours, read-out: Antimicrobial activity (MIC)
Method in brief: as §1

S. aureus MS15027 = assay: MIC, agar plate dilution method; type: cell-based; conditions: Staphylococcus aureus, 37° C., 20 hours, read-out: Antimicrobial activity (MIC)
Method in brief: as §1

E. coli NIHJ JC-2 = assay: MIC, agar plate dilution method; type: cell-based; conditions: Escherichia coli, NIHJJC2, 20 h, read-out: Antimicrobial activity (MIC)
Method in brief: as §1

M. pneumoniae FH-P24 = assay: MIC, agar plate dilution method; type: cell-based; conditions: Mycoplasmoides pneumoniae, FHP24, 20 h, read-out: Antimicrobial activity (MIC)
Method in brief: as §2

S. Pyogenes Cook = assay: MIC, agar plate dilution method; type: cell-based; conditions: Streptococcus pyogenes, 37° C., 20 hours, read-out: Antimicrobial activity (MIC)
Method in brief: as §1

S. aureus MS15026 = assay: MIC, agar plate dilution method; type: cell-based; conditions: Staphylococcus aureus, 37° C., 20 hours, read-out: Antimicrobial activity (MIC)
Method in brief: as §1

S. aureus MS15009/pMS98 = assay: MIC, agar plate dilution method; type: cell-based; conditions: Staphylococcus aureus, MS15009/PMS98, 20 h, read-out: Antimicrobial activity (MIC)
Method in brief: as §2

M. pneumoniae Mac = assay: MIC, agar plate dilution method; type: cell-based; conditions: Mycoplasmoides pneumoniae, 20 h, read-out: Antimicrobial activity (MIC)
Method in brief: as §1

M. pneumoniae Numata = assay: MIC, agar plate dilution method; type: cell-based; conditions: Mycoplasmoides pneumoniae, 20 h, read-out: Antimicrobial activity (MIC)
Method in brief: as §1

metabolism in plasma = type: in vitro ADME, rat; conditions: no free hydroxyl group in the neutral sugar moiety formed
Description: Each test compound and 50 μl of a methanol solution (10,000 γ) were added to 950 μl of thawed rat plasma and the resulting mixture was incubated at 37° C. for 24 hours. After completion of the incubation, a 20 μl portion of the mixture was added to 980 μl of 0.05M phosphate buffer (pH 7.6). A 20 μl portion of the sample solution was used to measure antimicrobial activity against M. luteus. Separately, the calibration curve was prepared by using a methanol solution containing each test compound. The starting activity of each compound in the plasma was referred to as 100%.

Mycoplasma = assay: anti-Mycoplasma activity (summary in words); type: cell-based
Description: Antimicrobial activities of the compounds of the present invention were determined by measuring minimum inhibitory concentration (MIC). Minimum inhibitory concentration was determined by the agar plate dilution method in the following manner.
Test strains were subjected to seed culture using Sensitivity test broth (STB, Nissui Pharmaceutical) except that the strains belonging to the genus Streptococcus, Branhamella and Haemophilus were cultured on blood agar plate. A 5 μl portion of cell suspension of the test strains having about 10^6 CFU/ml was inoculated into Sensitivity disk agar (SDA, Nissui Pharmaceutical) supplemented with 5% horse blood and incubated at 37° C. for 20 hours. Then, MIC was measured. For comparison, MDM and leucomycin A7 (LM-A7) was also tested.

[6] = tested on: Gram-positive bacteria and Mycoplasma; assay: antimicrobial activity in vitro (summary in words); type: cell-based; conditions: from Table 1
Method in brief: as §1

Cmax [1]: 6200 ng/mL | dose excreted at 24 h [2]: < 2%
Structure (SMILES): CCC(=O)O[C@@H]1CC(=O)O[C@H](C)C/C=C/C=C/[C@H](OC(C)=O)[C@H](C)C[C@H](CC=O)[C@H](O[C@@H]2O[C@H](C)[C@@H](O[C@H]3C[C@@](C)(OC(C)=O)[C@@H](OC(=O)CC)[C@H](C)O3)[C@H](N(C)C)[C@H]2O)[C@H]1OC [MOM, miokamycin, reference compound]
metabolic pattern of the mycarose moiety in human compared with rat [3]: almost the same as that in rat | metabolism of the two acyl groups in the neutral sugar moiety (esterase): removed with esterase in vivo

Cmax [1]: 2900 ng/mL | dose excreted at 24 h [2]: < 2%
Structure (SMILES): CCCC(=O)O[C@H]1[C@H](C)O[C@@H](O[C@H]2[C@H](N(C)C)[C@@H](O)[C@H](O[C@H]3[C@@H](CC=O)C[C@@H](C)[C@@H](O)/C=C/C=C/C[C@@H](C)OC(=O)C[C@@H](O)[C@@H]3OC)O[C@@H]2C)C[C@@]1(C)OC(=O)CC [RKM, rokitamycin, reference compound]
major metabolite with a cleaved lactone ring [4]: no compound with a cleaved lactone ring has been reported as a major metabolite | metabolism of the two acyl groups in the neutral sugar moiety (esterase): removed with esterase in vivo

Structure (SMILES): CO[C@@H]1[C@@H](O[C@@H]2O[C@H](C)[C@@H](O[C@H]3C[C@@](C)(O)[C@@H](O)[C@H](C)O3)[C@H](N(C)C)[C@H]2O)[C@@H](CC=O)C[C@@H](C)[C@@H](O[C@H]2CC[C@H](N(C)C)[C@@H](C)O2)/C=C/C=C/C[C@@H](C)OC(=O)C[C@H]1OC(C)=O [spiramycin II]
sustained antimicrobial activity in rat plasma compared with spiramycin I [5]: shows a sustained antimicrobial activity in rat plasma

Structure (SMILES): CCC(=O)O[C@@H]1CC(=O)O[C@H](C)C/C=C/C=C/[C@H](O)[C@H](C)C[C@H](CC=O)[C@H](O[C@@H]2O[C@H](C)[C@@H](O[C@H]3C[C@@](C)(OC)[C@@H](OCCC(C)C)[C@H](C)O3)[C@H](N(C)C)[C@H]2O)[C@H]1OC [(3), 4"-O-depropionyl-4"-O-isoamyl-3"-O-methylmidecamycin A1]
pharmacokinetics in mice (in words) [1]: excellent pharmacokinetics | Cmax [1]: 11300 ng/mL | maximum concentration in the serum, comparison in words ([1]; versus clarythromycin (CAM) or other 16-membered macrolides): comparable to that of clarythromycin (CAM); also recorded: considered the highest one among 16-membered macrolide compounds having a free hydroxyl group at the 9-position | MIC (M. luteus ATCC9341): 0.05 µg/mL (≈ 0.0594 µM) | MIC (E. faecalis W-73): 3.13 µg/mL (≈ 3.72 µM) | MIC (S. Pneumoniae Type 1): 0.2 µg/mL (≈ 0.238 µM) | MIC (B. catarrhalis W-0500): 0.78 µg/mL (≈ 0.926 µM) | MIC (B. catarrhalis W-0506): 1.56 µg/mL (≈ 1.85 µM) | MIC (S. aureus MS15009/pMS99): > 100 µg/mL | MIC (K. pneumoniae PC1602): > 100 µg/mL | MIC (M. pneumoniae FH): 1.56 µg/mL (≈ 1.85 µM) | MIC (S. epidermidis ATCC14990): 1.56 µg/mL (≈ 1.85 µM) | MIC (S. pneumoniae IP692): 0.1 µg/mL (≈ 0.119 µM) | MIC (S. aureus M126): > 100 µg/mL | MIC (S. aureus 209P JC-1): 0.2 µg/mL (≈ 0.238 µM) | MIC (H. influenzae 9334): 6.25 µg/mL (≈ 7.42 µM) | MIC (S. aureus M133): 0.78 µg/mL (≈ 0.926 µM) | MIC (S. aureus MS15027): 0.78 µg/mL (≈ 0.926 µM) | MIC (E. coli NIHJ JC-2): > 100 µg/mL | MIC (M. pneumoniae FH-P24): 0.025 µg/mL (≈ 0.0297 µM) | MIC (S. Pyogenes Cook): 0.1 µg/mL (≈ 0.119 µM) | MIC (S. aureus MS15026): > 100 µg/mL | MIC (S. aureus MS15009/pMS98): 0.78 µg/mL (≈ 0.926 µM) | MIC (M. pneumoniae Mac): 0.05 µg/mL (≈ 0.0594 µM) | MIC (M. pneumoniae Numata): 0.025 µg/mL (≈ 0.0297 µM) | extent of metabolism (metabolism in plasma): hardly metabolized | anti-Mycoplasma activity (Mycoplasma): practically effective anti-Mycoplasma activity | degree of loss of the antimicrobial activity in the plasma compared with MOM (M. luteus): lower than that of MOM | stability in the living mouse body (sustaining the antimicrobial activity) [2]: highly stable | recovery in the urine compared with CAM ([2]; 200 mg/kg oral): slightly lower than that of CAM | dose excreted at 24 h [2]: 20% | antimicrobial activities compared with MDM [6]: comparable to, or even exceeding, that of MDM | antimicrobial activities on Gram-positive bacteria and Mycoplasma [6]: strong antimicrobial activities
